Data as given in patent EP0627489B1, “Methods and compositions for the treatment of malignancies in which a protein kinase is associated” (WASHINGTON RESEARCH FOUNDATION, priority 1990, dated 1991).
“And” between values parts separate entries of the source, which are not always exact repeats. Equal entries are not always repeated. Where two headings read alike, the source gives them in different places.

Key:
Type in all cases: biochemical
TCΔC11.PTPase [1] = biological target: T1, TCΔC11.PTPase (Homo sapiens, UniProt P17706); assay: Effectors of PTPase activity, truncated enzyme; conditions: substrate RCML 5 µM
T1 construct: a truncated PTPase in which an 11-kDa segment was deleted from the carboxyl end (TCΔC11.PTPase-transfected cells); made in house; host or cells: Sf9 (Spodoptera frugiperda) insect cells, recombinant baculovirus (pVL 941)
T1 sequence (P17706 1-317 limits assumed): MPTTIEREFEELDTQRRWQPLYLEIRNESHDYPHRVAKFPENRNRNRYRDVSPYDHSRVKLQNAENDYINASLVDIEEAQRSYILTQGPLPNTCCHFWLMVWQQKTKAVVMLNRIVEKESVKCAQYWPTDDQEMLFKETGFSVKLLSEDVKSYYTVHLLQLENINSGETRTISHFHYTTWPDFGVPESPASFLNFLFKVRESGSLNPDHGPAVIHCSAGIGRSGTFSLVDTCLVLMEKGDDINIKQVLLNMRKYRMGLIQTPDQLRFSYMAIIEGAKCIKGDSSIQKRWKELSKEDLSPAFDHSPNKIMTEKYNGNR
Method: (§1) Cell extracts or purified enzymes were assayed for tyrosine phosphatase using a method described by Tonks et al., in "Purification of the Major Protein-tyrosine-phosphatases of Human Placenta," J. Biol. Chem. (263):6722-6730, 1988, based on measurement of the release of ^32P from labeled substrate. Since phosphorylation of reduced, carboxyamidomethylated, maleylated (RCM)-lysozyme is not stoichiometric, concentrations are expressed in terms of ^32P phosphotyrosine. Briefly, a mixture of 0.02 ml of PTPase (diluted to less than 1 unit/ml in Buffer A) and 0.02 ml of Buffer A was warmed at 30°C for 5 minutes. Buffer A is composed of 25 mM imidazole HCl […], 1 mg/ml BSA, 0.1% (v/v) β-mercaptoethanol. […] The reaction was terminated after approximately 10 minutes by addition of 0.18 ml of 20% (w/v) trichloroacetic acid and 0.02 ml of 25 mg/ml BSA, added as a carrier protein. The suspension was vortexed, allowed to stand on ice for 10 minutes, and centrifuged at 12,500 x g for 3 minutes. A 0.2-ml aliquot of the supernatant was added to 1 ml of Aquasol scintillant and counted in a Beckman LS7000 scintillation counter. […] Blank incubations were performed in which the PTPase was replaced by Buffer A, and total ^32P was determined by counting 0.02 ml of the substrate. […] One unit of PTPase activity is defined as that amount which releases 1 nmol of phosphate/min. […]

TC.PTPase = biological target: T2, TC.PTPase (Homo sapiens, UniProt P17706); assay: Effectors of PTPase activity, full-length enzyme
T2 construct: open reading frames of the full-length 48-kDa T cell PTPase (TC.PTPase); made in house; host or cells: Sf9 (Spodoptera frugiperda) insect cells, recombinant baculovirus (pVL 941)
T2 sequence (P17706 1-415): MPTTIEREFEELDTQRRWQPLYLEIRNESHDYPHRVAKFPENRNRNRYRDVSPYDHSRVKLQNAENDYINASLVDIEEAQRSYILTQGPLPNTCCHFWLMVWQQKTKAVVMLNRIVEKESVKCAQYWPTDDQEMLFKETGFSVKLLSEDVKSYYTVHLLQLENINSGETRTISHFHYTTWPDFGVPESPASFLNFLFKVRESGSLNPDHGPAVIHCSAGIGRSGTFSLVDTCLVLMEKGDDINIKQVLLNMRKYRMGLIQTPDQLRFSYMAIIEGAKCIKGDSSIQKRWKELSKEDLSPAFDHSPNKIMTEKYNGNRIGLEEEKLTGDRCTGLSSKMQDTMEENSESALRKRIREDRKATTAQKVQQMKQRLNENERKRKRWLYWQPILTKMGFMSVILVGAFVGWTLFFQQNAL
Method: as §1

TCΔC11.PTPase [2] = biological target: T1, TCΔC11.PTPase; assay: Effectors of PTPase activity, truncated enzyme
[3] = effector 2 mM, substrate MBP 5 µM
[4] = effector 0.01 µM, substrate MBP 5 µM
[5] = effector 1 µM, substrate MBP 5 µM
[6] = effector 10 µM, substrate MBP 5 µM
[7] = effector 10 µM, substrate RCML 5 µM
[8] = effector 100 µM, substrate MBP 5 µM

## NCCCCNCCCN [spermidine]
TCΔC11.PTPase [1]; effector 2 mM
  Activity, percentage of phosphate released relative to control in which the effector was omitted: 132 percentage
TC.PTPase; [3]
  Activity, percentage of phosphate released relative to control in which the effector was omitted: 43 percentage
TC.PTPase; effector 2 mM, substrate RCML 5 µM
  Activity, percentage of phosphate released relative to control in which the effector was omitted: 249 percentage
TCΔC11.PTPase [2]; [3]
  Activity, percentage of phosphate released relative to control in which the effector was omitted: 108 percentage

## poly Glu:Tyr 4:1
TCΔC11.PTPase [1]; effector 0.01 µM
  Activity, percentage of phosphate released relative to control in which the effector was omitted: 70 percentage
TCΔC11.PTPase [1]; effector 1 µM
  Activity, percentage of phosphate released relative to control in which the effector was omitted: 17 percentage
TCΔC11.PTPase [1]; effector 10 µM
  Activity, percentage of phosphate released relative to control in which the effector was omitted: 11 percentage
TC.PTPase; [4]
  Activity, percentage of phosphate released relative to control in which the effector was omitted: 119 percentage
TC.PTPase; effector 0.01 µM, substrate RCML 5 µM
  Activity, percentage of phosphate released relative to control in which the effector was omitted: 66 percentage
TC.PTPase; [5]
  Activity, percentage of phosphate released relative to control in which the effector was omitted: 133 percentage
TC.PTPase; effector 1 µM, substrate RCML 5 µM
  Activity, percentage of phosphate released relative to control in which the effector was omitted: 18 percentage
TC.PTPase; [6]
  Activity, percentage of phosphate released relative to control in which the effector was omitted: 58 percentage
TC.PTPase; [7]
  Activity, percentage of phosphate released relative to control in which the effector was omitted: 6 percentage
TCΔC11.PTPase [2]; [4]
  Activity, percentage of phosphate released relative to control in which the effector was omitted: 102 percentage
TCΔC11.PTPase [2]; [5]
  Activity, percentage of phosphate released relative to control in which the effector was omitted: 104 percentage
TCΔC11.PTPase [2]; [6]
  Activity, percentage of phosphate released relative to control in which the effector was omitted: 127 percentage

## O=C(O)CN(CCN(CC(=O)O)CC(=O)O)CC(=O)O [EDTA]
TC.PTPase
  Activity, percentage of phosphate released relative to control in which the effector was omitted: 124 percentage and 137 percentage
TCΔC11.PTPase [2]
  Activity, percentage of phosphate released relative to control in which the effector was omitted: 170 percentage and 150 percentage

## molybdate
TCΔC11.PTPase [1]; effector 10 µM
  Activity, percentage of phosphate released relative to control in which the effector was omitted: 2 percentage
TC.PTPase; [6]
  Activity, percentage of phosphate released relative to control in which the effector was omitted: 1 percentage
TC.PTPase; [7]
  Activity, percentage of phosphate released relative to control in which the effector was omitted: 0 percentage
TCΔC11.PTPase [2]; [6]
  Activity, percentage of phosphate released relative to control in which the effector was omitted: 2 percentage

## NCCCNCCCCNCCCN [spermine]
TC.PTPase
  Activity, percentage of phosphate released relative to control in which the effector was omitted: 62 percentage
  activation of the full-length enzyme: up to sevenfold
TC.PTPase; 10 min, read-out: Activity, percentage of phosphate released relative to control in which the effector was omitted
  remaining activity at 2000 µM: 727%
TCΔC11.PTPase [2]
  Activity, percentage of phosphate released relative to control in which the effector was omitted: 110 percentage and 97 percentage

## vanadate
TCΔC11.PTPase [1]; effector 100 µM
  Activity, percentage of phosphate released relative to control in which the effector was omitted: 2 percentage
TC.PTPase; [8]
  Activity, percentage of phosphate released relative to control in which the effector was omitted: 0 percentage
TC.PTPase; effector 100 µM, substrate RCML 5 µM
  Activity, percentage of phosphate released relative to control in which the effector was omitted: 0 percentage
TCΔC11.PTPase [2]; [8]
  Activity, percentage of phosphate released relative to control in which the effector was omitted: 1 percentage
